pEC50, pIC50: −log10 of the molar value. Calls of active or inactive are those of the source. The calls are words filed in the database; no cut-off is given here.
Legend:
Cannabinoid receptor 2 [1] = target: T1, Cannabinoid receptor 2 (Homo sapiens, UniProt P34972); test: Agonist activity at human recombinant CB2 receptor expressed in Saccharomyces cerevisiae cells; assay type: functional, cell-based
Cannabinoid receptor 2 [2] = target: T1, Cannabinoid receptor 2; test: Efficacy at human recombinant CB2 receptor expressed in Saccharomyces cerevisiae cells relative to HU210; assay type: cell-based
Cytochrome P450 1A2 = target: T2, Cytochrome P450 1A2 (Homo sapiens, UniProt P05177); test: Inhibition of human CYP1A2; assay type: ADME
T2 sequence (P05177 whole entry): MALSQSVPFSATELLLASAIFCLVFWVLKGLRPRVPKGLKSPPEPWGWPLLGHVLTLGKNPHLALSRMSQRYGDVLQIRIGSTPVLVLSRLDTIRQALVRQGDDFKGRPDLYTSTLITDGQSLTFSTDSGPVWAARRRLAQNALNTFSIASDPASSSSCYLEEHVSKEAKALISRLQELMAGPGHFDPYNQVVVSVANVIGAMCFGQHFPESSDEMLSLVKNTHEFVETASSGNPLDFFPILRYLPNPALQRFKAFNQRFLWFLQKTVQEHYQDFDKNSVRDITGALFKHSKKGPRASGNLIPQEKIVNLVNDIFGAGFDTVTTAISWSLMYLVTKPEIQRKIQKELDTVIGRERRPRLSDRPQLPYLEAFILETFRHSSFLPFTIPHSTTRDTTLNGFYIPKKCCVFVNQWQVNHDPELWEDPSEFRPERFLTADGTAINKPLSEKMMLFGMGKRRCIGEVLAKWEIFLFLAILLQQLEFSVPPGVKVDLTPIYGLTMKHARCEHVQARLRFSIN

Cytochrome P450 2C9 = Cytochrome P450 2C9 (Homo sapiens, UniProt P11712); test: Inhibition of human CYP2C9; assay type: ADME
Cytochrome P450 2C19 = Cytochrome P450 2C19 (Homo sapiens, UniProt P33261); test: Inhibition of human CYP2C19; assay type: ADME
Cytochrome P450 2D6 = Cytochrome P450 2D6 (Homo sapiens, UniProt P10635); test: Inhibition of human CYP2D6; assay type: ADME
Cytochrome P450 3A4 = Cytochrome P450 3A4 (Homo sapiens, UniProt P08684); test: Inhibition of human CYP3A4
[3] = target: Cannabinoid receptor 1 (Homo sapiens) (UniProt P21554); test: Agonist activity at recombinant human CB1 receptor expressed in Saccharomyces cerevisiae cells at 2 uM; assay type: functional, cell-based
[4] = target: T3, Cannabinoid receptor 2 (Rattus norvegicus) (UniProt Q9QZN9); test: (§1) Agonist activity at rat CB2 receptor; assay type: functional
T3 sequence (whole entry): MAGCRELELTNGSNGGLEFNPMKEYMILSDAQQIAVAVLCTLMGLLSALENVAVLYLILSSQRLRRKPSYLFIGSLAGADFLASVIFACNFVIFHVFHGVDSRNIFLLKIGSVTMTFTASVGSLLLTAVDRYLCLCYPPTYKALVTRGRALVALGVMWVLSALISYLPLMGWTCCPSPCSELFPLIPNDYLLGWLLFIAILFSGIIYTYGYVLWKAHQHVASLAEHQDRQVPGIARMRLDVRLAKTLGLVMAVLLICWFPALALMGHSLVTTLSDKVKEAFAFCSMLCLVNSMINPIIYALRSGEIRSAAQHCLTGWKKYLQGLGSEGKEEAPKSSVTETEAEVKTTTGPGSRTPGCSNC

Cannabinoid receptor 2 [5] = target: T4, Cannabinoid receptor 2 (Rattus norvegicus, UniProt Q9QZN9); test: as §1; assay type: functional
T4 sequence (Q9QZN9 whole entry): T3 sequence (whole entry)

[6] = Oral bioavailability in rat; assay type: ADME, organism-based; settings: in vivo
[7] = Half life in rat; assay type: ADME, organism-based; settings: in vivo
Rattus norvegicus [8] = test: Analgesic activity in po dosed rat FCA model of inflammatory pain; assay type: functional
Rattus norvegicus [9] = test: Reversal of hyperalgesia in rat at 0.3 mg/kg, po by weight bearing protocol; assay type: functional, organism-based; set-up: dose 0.3 mg/kg
[10] = Drug concentration in blood of rat FCA model of inflammatory pain at 0.03 mg/kg, po after 1hr; assay type: ADME, organism-based; set-up: dose 0.03 mg/kg, route oral; settings: read-out: Activity
[11] = Drug concentration in blood of rat FCA model of inflammatory pain at 0.1 mg/kg, po after 1hr; assay type: ADME, organism-based; set-up: dose 0.1 mg/kg, route oral; settings: read-out: Activity
[12] = Drug concentration in blood of rat FCA model of inflammatory pain at 0.3 mg/kg, po after 1hr; assay type: ADME, organism-based; set-up: dose 0.3 mg/kg, route oral; settings: read-out: Activity
Rattus norvegicus [13] = test: Reversal of FCA-induced hyperalgesia in rat administered thrice daily at 1 mg/kg, po; assay type: functional, organism-based; set-up: dose 1 mg/kg
Liver microsomes = test: Intrinsic clearance in rat liver microsome; assay type: ADME
Rattus norvegicus [14] = test: Reversal of antihypersensitivity to pain in rat FCA model of inflammatory pain at 15 mg/kg, ip after 1 hr; assay type: functional, organism-based; set-up: dose 15 mg/kg

Cytochrome P450 2D6, sequence (P10635 whole entry): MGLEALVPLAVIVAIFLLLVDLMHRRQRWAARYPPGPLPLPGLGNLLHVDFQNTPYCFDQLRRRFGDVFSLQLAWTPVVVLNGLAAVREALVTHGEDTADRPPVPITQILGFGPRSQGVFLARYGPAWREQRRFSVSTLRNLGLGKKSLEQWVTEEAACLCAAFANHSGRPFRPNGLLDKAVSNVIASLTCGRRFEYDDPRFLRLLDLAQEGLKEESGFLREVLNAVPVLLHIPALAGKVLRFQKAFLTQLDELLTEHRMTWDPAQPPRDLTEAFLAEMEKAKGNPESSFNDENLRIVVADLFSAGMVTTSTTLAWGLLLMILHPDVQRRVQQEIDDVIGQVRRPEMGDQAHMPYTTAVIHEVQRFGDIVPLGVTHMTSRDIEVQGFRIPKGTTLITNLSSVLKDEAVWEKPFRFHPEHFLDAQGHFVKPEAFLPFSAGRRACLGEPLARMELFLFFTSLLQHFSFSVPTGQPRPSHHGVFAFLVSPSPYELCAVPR
Cytochrome P450 3A4, sequence (P08684 whole entry): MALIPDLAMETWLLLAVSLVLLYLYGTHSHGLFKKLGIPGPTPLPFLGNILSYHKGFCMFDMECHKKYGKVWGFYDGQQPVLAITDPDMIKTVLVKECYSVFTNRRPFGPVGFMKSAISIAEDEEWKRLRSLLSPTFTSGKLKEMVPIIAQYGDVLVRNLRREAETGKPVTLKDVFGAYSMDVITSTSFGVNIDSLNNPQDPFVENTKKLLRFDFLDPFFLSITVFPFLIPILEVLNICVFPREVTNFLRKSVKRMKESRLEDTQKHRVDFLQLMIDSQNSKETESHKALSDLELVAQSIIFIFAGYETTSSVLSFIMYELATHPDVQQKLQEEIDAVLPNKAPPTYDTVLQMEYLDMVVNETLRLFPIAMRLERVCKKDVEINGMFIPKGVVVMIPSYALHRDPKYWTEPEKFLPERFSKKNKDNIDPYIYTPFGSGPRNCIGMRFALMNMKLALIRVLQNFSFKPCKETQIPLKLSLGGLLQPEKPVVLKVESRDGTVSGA
T1 sequence (P34972 whole entry): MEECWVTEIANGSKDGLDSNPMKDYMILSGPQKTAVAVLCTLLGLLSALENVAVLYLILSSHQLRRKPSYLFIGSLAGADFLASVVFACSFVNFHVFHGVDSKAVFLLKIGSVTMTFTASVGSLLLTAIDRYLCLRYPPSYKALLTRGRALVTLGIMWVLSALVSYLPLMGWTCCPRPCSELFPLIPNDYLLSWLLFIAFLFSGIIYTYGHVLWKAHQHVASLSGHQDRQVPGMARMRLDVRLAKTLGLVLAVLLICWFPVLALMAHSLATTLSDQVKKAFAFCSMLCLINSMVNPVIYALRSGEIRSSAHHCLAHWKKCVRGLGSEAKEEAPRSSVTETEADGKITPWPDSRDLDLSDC
Cytochrome P450 2C19, sequence (P33261 whole entry): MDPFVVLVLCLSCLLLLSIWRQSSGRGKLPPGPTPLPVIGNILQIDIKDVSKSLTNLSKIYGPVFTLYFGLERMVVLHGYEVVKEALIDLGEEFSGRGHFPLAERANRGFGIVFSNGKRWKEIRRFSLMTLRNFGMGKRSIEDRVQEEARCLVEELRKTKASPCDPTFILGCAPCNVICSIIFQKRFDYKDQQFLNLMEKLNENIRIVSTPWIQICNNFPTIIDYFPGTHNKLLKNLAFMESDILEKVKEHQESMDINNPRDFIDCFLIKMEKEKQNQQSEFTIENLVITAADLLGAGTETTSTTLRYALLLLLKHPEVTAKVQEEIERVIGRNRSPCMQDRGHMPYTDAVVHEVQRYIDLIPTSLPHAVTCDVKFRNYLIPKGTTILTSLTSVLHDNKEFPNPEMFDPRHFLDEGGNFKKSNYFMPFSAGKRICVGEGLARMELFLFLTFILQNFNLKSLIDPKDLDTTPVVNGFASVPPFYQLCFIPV
Cytochrome P450 2C9, sequence (P11712 whole entry): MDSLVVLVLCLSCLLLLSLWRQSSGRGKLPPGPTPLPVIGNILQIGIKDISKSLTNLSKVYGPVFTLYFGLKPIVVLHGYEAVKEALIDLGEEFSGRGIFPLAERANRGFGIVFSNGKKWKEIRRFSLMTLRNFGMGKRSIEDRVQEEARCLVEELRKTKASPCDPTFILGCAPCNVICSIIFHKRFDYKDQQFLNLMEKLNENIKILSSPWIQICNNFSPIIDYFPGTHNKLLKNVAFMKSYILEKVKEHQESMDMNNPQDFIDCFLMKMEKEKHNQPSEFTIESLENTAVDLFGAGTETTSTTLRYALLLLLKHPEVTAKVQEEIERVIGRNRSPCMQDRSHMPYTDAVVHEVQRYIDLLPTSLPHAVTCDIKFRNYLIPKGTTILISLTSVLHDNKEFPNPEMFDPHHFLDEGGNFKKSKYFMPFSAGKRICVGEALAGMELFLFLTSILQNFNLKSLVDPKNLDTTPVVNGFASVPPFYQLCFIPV
Cannabinoid receptor 1 (Homo sapiens), sequence (P21554 whole entry): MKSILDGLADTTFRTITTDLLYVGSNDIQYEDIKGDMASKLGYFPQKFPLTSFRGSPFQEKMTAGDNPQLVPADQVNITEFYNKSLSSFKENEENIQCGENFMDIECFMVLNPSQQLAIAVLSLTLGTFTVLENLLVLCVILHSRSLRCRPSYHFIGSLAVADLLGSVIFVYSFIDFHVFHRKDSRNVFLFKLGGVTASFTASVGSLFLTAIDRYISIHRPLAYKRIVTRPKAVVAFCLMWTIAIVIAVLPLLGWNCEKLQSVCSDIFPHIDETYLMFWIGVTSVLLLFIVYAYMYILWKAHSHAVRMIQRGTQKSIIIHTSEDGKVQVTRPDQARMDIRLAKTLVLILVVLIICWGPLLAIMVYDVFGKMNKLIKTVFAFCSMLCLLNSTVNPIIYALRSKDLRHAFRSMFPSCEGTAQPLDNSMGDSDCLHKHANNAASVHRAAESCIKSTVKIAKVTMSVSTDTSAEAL

SMILES | pEC50 (Cannabinoid receptor 2 [1]) | Efficacy (Cannabinoid receptor 2 [2]) | pIC50 (Cytochrome P450 1A2) | pIC50 (Cytochrome P450 2C19) | pIC50 (Cytochrome P450 2D6) | other results
O=C(NCC1CCOCC1)c1cnc(Nc2cccc(Cl)c2)nc1C(F)(F)F | 7.30 | 89% | < 4.00 | 4.25 | 4.29 | pIC50 (Cytochrome P450 2C9): 4.74; pIC50 (Cytochrome P450 3A4): 4.29
O=C(NCc1ccncc1)c1cnc(Nc2cccc(Cl)c2)nc1C(F)(F)F | 7.22 | 94% | 6.40 | 5.72 | > 7.00 | pIC50 (Cytochrome P450 2C9): 6.05; pIC50 (Cytochrome P450 3A4): > 7.00
O=C(NCC1CCOCC1)c1cnc(Nc2cc(F)cc(F)c2)nc1C(F)(F)F | 6.90 | 91% | 4.62 | 4.04 | 4.35 | pIC50 (Cytochrome P450 2C9): < 4.00; pIC50 (Cytochrome P450 3A4): < 4.00
N#Cc1cccc(Nc2ncc(C(=O)NCc3ccccc3)c(C(F)(F)F)n2)c1 | 6.34 | 76% |  |  |  | 
O=C(NCc1ccc(F)cc1)c1cnc(Nc2cccc(Cl)c2)nc1C(F)(F)F | 7.20 | 78% | 5.10 | 4.92 | 5.82 | pIC50 (Cytochrome P450 2C9): 5.10; pIC50 (Cytochrome P450 3A4): 5.30
O=C(NCC1CCOCC1)c1cnc(Nc2ccc(Cl)cc2F)nc1C(F)(F)F | 6.70 | 80% | < 4.00 | < 4.00 | < 4.00 | pIC50 (Cytochrome P450 2C9): < 4.00; pIC50 (Cytochrome P450 3A4): < 4.00
N#Cc1ccc(CNC(=O)c2cnc(Nc3cccc(Cl)c3)nc2C(F)(F)F)cc1 | 6.66 | 69% |  |  |  | 
O=C(NCC1CCC1)c1cnc(Nc2cccc(Cl)c2)nc1C(F)(F)F | 7.40 | 82% | 5.10 | 5.10 | 4.66 | pIC50 (Cytochrome P450 2C9): 5.52; pIC50 (Cytochrome P450 3A4): 4.12
O=C(NCC1CCOCC1)c1cnc(Nc2cccc(Cl)c2F)nc1C(F)(F)F | 6.90 | 90% | 4.00 | < 4.00 | < 4.00 | pIC50 (Cytochrome P450 2C9): 4.12; pIC50 (Cytochrome P450 3A4): < 4.00
O=C(NCc1ccc(Cl)cc1)c1cnc(Nc2cccc(Cl)c2)nc1C(F)(F)F | 6.40 | 65% |  |  |  | 
CC(=O)Nc1ccc(Nc2ncc(C(=O)NCc3ccccc3)c(C(F)(F)F)n2)cc1 | < 4.60 |  |  |  |  | 
O=C(NCC1CCOCC1)c1cnc(Nc2ccc(Cl)c(Cl)c2)nc1C(F)(F)F | 7.31 | 83% | 5.10 | < 4.60 | < 4.60 | pIC50 (Cytochrome P450 2C9): < 4.60; pIC50 (Cytochrome P450 3A4): < 4.60; Efficacy [3]: 10%
O=C(NCC1CCOCC1)c1cnc(Nc2cc(Cl)ccc2Cl)nc1C(F)(F)F | 7.00 | 85% |  |  |  | 
N#Cc1ccc(Nc2ncc(C(=O)NCc3ccccc3)c(C(F)(F)F)n2)cc1 | 6.40 | 67% |  |  |  | 
COc1ccccc1Nc1ncc(C(=O)NCc2ccccc2)c(C(F)(F)F)n1 | 6.80 | 77% |  |  |  | 
O=C(NCc1ccccc1Cl)c1cnc(Nc2cccc(Cl)c2)nc1C(F)(F)F | 5.00 | 21% |  |  |  | 
COc1ccc(Nc2ncc(C(=O)NCc3ccccc3)c(C(F)(F)F)n2)cc1 | 6.70 | 32% |  |  |  | 
COc1ccccc1CNC(=O)c1cnc(Nc2cccc(Cl)c2)nc1C(F)(F)F | < 4.60 | 78% |  |  |  | 
O=C(NCC1CCOCC1)c1cnc(Nc2c(Cl)cccc2Cl)nc1C(F)(F)F | 6.20 | 86% |  |  |  | 
O=C(NCc1ccccc1)c1cnc(Nc2ccc(Cl)cc2)nc1C(F)(F)F | 6.90 | 49% |  |  |  | 
O=C(NCC1CCCCC1)c1cnc(Nc2cccc(Cl)c2)nc1C(F)(F)F | 7.10 | 82% | < 4.00 | 4.72 | < 4.00 | pIC50 (Cytochrome P450 2C9): 5.05; pIC50 (Cytochrome P450 3A4): 4.09
O=C(NCC1CCCC1)c1cnc(Nc2cccc(Cl)c2)nc1C(F)(F)F | 7.10 | 83% | 4.49 | 4.85 | < 4.00 | pIC50 (Cytochrome P450 2C9): 5.22; pIC50 (Cytochrome P450 3A4): 4.19
O=C(NCC1CCOCC1)c1cnc(Nc2ccc(F)cc2F)nc1C(F)(F)F | 6.20 | 81% |  |  |  | 

SMILES | pEC50 (Cannabinoid receptor 2 [1]) | Efficacy (Cannabinoid receptor 2 [2]) | pIC50 (Cytochrome P450 1A2) | pIC50 (Cytochrome P450 2C19) | pIC50 (Cytochrome P450 2D6) | other results
CC(C)(C)c1ccc(Nc2ncc(C(=O)NCc3ccccc3)c(C(F)(F)F)n2)cc1 | < 4.60 |  |  |  |  | 
O=C(NCc1ccccc1)c1cnc(Nc2cccc(Cl)c2)nc1C(F)(F)F | 6.61 | 82% |  |  |  | 
O=C(NCC1CCOCC1)c1cnc(Nc2ccc(F)cc2Cl)nc1C(F)(F)F | 6.40 | 85% |  |  |  | 
COc1cccc(Nc2ncc(C(=O)NCc3ccccc3)c(C(F)(F)F)n2)c1 | 6.33 | 76% |  |  |  | 
O=C(NCC1CCOCC1)c1cnc(Nc2ccc(Cl)cc2Cl)nc1C(F)(F)F [GW842166X] | 7.20 | 95% | < 4.00 | < 4.00 | < 4.00 | pIC50 (Cytochrome P450 2C9): < 4.00; pIC50 (Cytochrome P450 3A4): < 4.00; Efficacy [4]: 100%; pEC50 (Cannabinoid receptor 2 [5]): 7.04; bioavailability [6]: 58%; half-life [7]: 3 h; ED50 (Rattus norvegicus [8]): 0.1 mg/kg; Activity (Rattus norvegicus [9]): Active; concentration at 1 h [10]: 30 nM; concentration at 1 h [11]: 130 nM; concentration at 1 h [12]: 370 nM; Activity (Rattus norvegicus [13]): Active
O=C(NCc1ccco1)c1cnc(Nc2ccccc2)nc1C(F)(F)F | 6.20 | 62% |  |  |  | CL (Liver microsomes): 4.6 mL/min/g
O=C(NCC1CCOCC1)c1cnc(Nc2cccc(F)c2F)nc1C(F)(F)F | 6.40 | 90% |  |  |  | 
O=C(NCC1(O)CCCCC1)c1cnc(Nc2cccc(Cl)c2)nc1C(F)(F)F | 6.90 | 83% | 4.96 | 4.77 | 4.89 | 
COc1ccc(CNC(=O)c2cnc(Nc3cccc(Cl)c3)nc2C(F)(F)F)cc1 | 6.67 | 66% |  |  |  | 
O=C(NCC1CCOCC1)c1cnc(Nc2cccc(Cl)c2Cl)nc1C(F)(F)F | 7.10 | 90% |  |  |  | 
CC(=O)Nc1cccc(Nc2ncc(C(=O)NCc3ccccc3)c(C(F)(F)F)n2)c1 | < 4.60 |  |  |  |  | 
O=C(NCC1CCNCC1)c1cnc(Nc2cccc(Cl)c2)nc1C(F)(F)F | 5.30 | 46% |  |  |  | 
O=C(NCC1CCOCC1)c1cnc(Nc2cc(Cl)ccc2F)nc1C(F)(F)F | 6.90 | 86% | 4.59 | < 4.00 | < 4.00 | pIC50 (Cytochrome P450 2C9): 4.43; pIC50 (Cytochrome P450 3A4): 4.17
O=C(NCc1ccccc1)c1cnc(Nc2cccc(F)c2)nc1C(F)(F)F | 6.51 | 88% |  |  |  | 
O=C(NCC1CCOCC1)c1cnc(Nc2cc(Cl)cc(Cl)c2)nc1C(F)(F)F | 7.48 | 85% | < 4.00 | 4.85 | 4.57 | pIC50 (Cytochrome P450 2C9): 4.89; pIC50 (Cytochrome P450 3A4): 4.42
O=C(NCc1cccc(Cl)c1)c1cnc(Nc2cccc(Cl)c2)nc1C(F)(F)F | 5.80 | 18% |  |  |  | 
COc1cccc(CNC(=O)c2cnc(Nc3cccc(Cl)c3)nc2C(F)(F)F)c1 | 4.60 | 20% |  |  |  | 
O=C(NCc1ccccc1)c1cnc(Nc2ccccc2Cl)nc1C(F)(F)F | 6.60 | 48% |  |  |  | 
COc1ccc(C(=O)c2c(C)n(CCN3CCOCC3)c3cc(I)ccc23)cc1 |  |  |  |  |  | Activity (Rattus norvegicus [14]): Active
O=C(NCc1ccccc1)c1cnc(Nc2cccc(Br)c2)nc1C(F)(F)F | 6.64 | 81% |  |  |  | 
O=C(OCc1ccco1)c1cnc(N2CCOCC2)nc1C(F)(F)F | 6.20 | 55% |  |  |  | 
O=C(NCc1ccccc1)c1cnc(Nc2ccccc2)nc1C(F)(F)F | 6.40 | 45% |  |  |  | CL (Liver microsomes): < 0.5 mL/min/g
O=C(NCC1CC1)c1cnc(Nc2cccc(Cl)c2)nc1C(F)(F)F | 7.10 | 79% |  |  |  | 

— ChEMBL document CHEMBL1143658, “Discovery of 2-[(2,4-dichlorophenyl)amino]-N-[(tetrahydro- 2H-pyran-4-yl)methyl]-4-(trifluoromethyl)- 5-pyrimidinecarboxamide, a selective CB2 receptor agonist for the treatment of inflammatory pain” (J Med Chem, 2007)
